Source: patent publication US9597407B2, “Targeted antimicrobial moieties” (C3 Jian, Inc., priority 2009, dated 2017)
Entries after “also recorded” stand apart in the source; their conditions may differ.

Tests used:
microorganisms [1] = experiment: Morphology, biofilm and growth disruption by peptides (Table 5); format: cell-based; design: key: A: Peptide aggregates; B: Less hyphal formation; Clumps; Diffuse clumps and small polyps; F: Diffuse growth; H: Thin; I: Growth inhibition; Microcolony formation; Rippled; Small polyps; Thick; W: Halo formation on top, microlonies on bottom
Text: In certain embodiments peptides that induce alterations in phenotype or other biological activities can also be used as antimicrobial effector moieties.

bacteria = experiment: Binding of targeting peptides to microorganisms (Table 3); conditions: peptide binding in aqueous buffers that varied depending on peptide solubility; preferably 1x PBS
microorganisms [2] = experiment: Peptide activities: binding, antimicrobial, growth or phenotype altering (Table 8)
Text: In certain embodiments, peptides described herein can have multiple activities. Thus for example, a peptide can have both binding/targeting activity and antimicrobial activity. Such peptides can be used, e.g., in a chimeric construct, for any or all of these properties. Thus, for example, a peptide designated “B” in Table 8 can be used as a targeting peptide. If it is also designated G or M it can also be used for antimicrobial activity.

Substance	Organism, effect (morphology, biofilm and growth disruption) (microorganisms [1]; C. jeikeium)	Organism, effect (morphology, biofilm and growth disruption) (microorganisms [1]; E. faecalis)	Organism, effect (morphology, biofilm and growth disruption) (microorganisms [1]; MRSA)	Organism, effect (morphology, biofilm and growth disruption) (microorganisms [1]; S. epidermidis)	Organism, effect (morphology, biofilm and growth disruption) (microorganisms [1]; S. pneumoniae)	Target(s) (microorganism bound by the targeting peptide) (bacteria)	Activities (microorganisms [2])	Organism, effect (morphology, biofilm and growth disruption) (microorganisms [1]; C. albicans)	Organism, effect (morphology, biofilm and growth disruption) (microorganisms [1]; E. coli)	Organism, effect (morphology, biofilm and growth disruption) (microorganisms [1]; M. luteus)	Organism, effect (morphology, biofilm and growth disruption) (microorganisms [1]; P. mirabilis)	Organism, effect (morphology, biofilm and growth disruption) (microorganisms [1]; S. mutans)	Organism, effect (morphology, biofilm and growth disruption) (microorganisms [1]; P. aeruginosa)
PF-622 (chain 1 TREDVFSVRLINNIVNKQA; chain 2 TREDVFSVRLINNIVNKQA; Peptide with targeting and/or antimicrobial activity)	C. jeikeium (D)	E. faecalis (D)	MRSA (D)	S. epidermidis (D)	S. pneumoniae (M)	S. epidermidis; also recorded: P. aeruginosa; also recorded: C. albicans; also recorded: S. pneumoniae; also recorded: E. faecalis; also recorded: C. jeikeium	G B	–	–	–	–	–	–
PF-623 (chain 1 VLFAVYLGALDWLFSWLTQKM; chain 2 VLFAVYLGALDWLFSWLTQKM; Peptide with targeting and/or antimicrobial activity)	C. jeikeium (R)	E. faecalis (D)	MRSA (D)	S. epidermidis (M)	S. pneumoniae (D)	S. epidermidis and P. aeruginosa and MRSA and S. pneumoniae and E. faecalis and C. jeikeium	G B	–	–	–	–	–	–
PF-625 (chain 1 SDSTNNARTRKKARDVTTKDIDK; chain 2 SDSTNNARTRKKARDVTTKDIDK; Peptide with targeting and/or antimicrobial activity)	–	–	–	–	S. pneumoniae (H)	S. epidermidis; also recorded: M. luteus; also recorded: S. pneumoniae; also recorded: C. jeikeium	G B	–	–	–	–	–	–
PF-626 (chain 1 KYDFDDFEPEEA; chain 2 KYDFDDFEPEEA; Peptide with targeting and/or antimicrobial activity)	–	–	–	–	S. pneumoniae (H)	S. epidermidis and M. luteus and E. coli and C. albicans and MRSA and S. pneumoniae and E. faecalis and C. jeikeium	G B	–	–	–	–	–	–
PF-627 (chain 1 INDLLSYFTLHEK; chain 2 INDLLSYFTLHEK; Peptide with targeting and/or antimicrobial activity)	–	E. faecalis (H)	MRSA (R)	S. epidermidis (H)	S. pneumoniae (I)	S. epidermidis and P. aeruginosa and MRSA and S. pneumoniae and E. faecalis and C. jeikeium	G B	C. albicans (B)	–	–	–	–	–
PF-635 (chain 1 MNAHGHSLIFQKMIVHAFAFFSKQKNYLYF; chain 2 MNAHGHSLIFQKMIVHAFAFFSKQKNYLYF; Peptide with targeting and/or antimicrobial activity)	C. jeikeium (D)	E. faecalis (D)	MRSA (D)	S. epidermidis (M)	S. pneumoniae (D)	S. epidermidis and P. aeruginosa and C. albicans and MRSA and S. pneumoniae and E. faecalis and C. jeikeium	G B	C. albicans (B)	–	–	–	–	–
PF-737 (chain 1 KSSGSSASASSTAGGSSSK; chain 2 KSSGSSASASSTAGGSSSK; Peptide with targeting and/or antimicrobial activity)	–	–	–	–	S. pneumoniae (D)	S. epidermidis; also recorded: S. pneumoniae	G B	–	–	–	–	–	–
PF-738 (chain 1 KSGATSAASGAKSGASS; chain 2 KSGATSAASGAKSGASS; Peptide with targeting and/or antimicrobial activity)	–	–	MRSA (M)	–	–	S. epidermidis; also recorded: C. albicans; also recorded: C. jeikeium	G B	–	–	–	–	–	–
PF-741 (chain 1 AKREDTVAAQIGANILNLIQ; chain 2 AKREDTVAAQIGANILNLIQ; Peptide with targeting and/or antimicrobial activity)	–	–	MRSA (C)	S. epidermidis (C)	S. pneumoniae (D)	S. epidermidis and M. luteus and P. mirabilis and P. aeruginosa and C. albicans and MRSA and S. pneumoniae and E. faecalis	G B	–	E. coli (C)	M. luteus (C)	P. mirabilis (C)	S. mutans (D)	–
PF-744 (chain 1 LGVGTFVGKVLIKNQQKQKSKKKAQ; chain 2 LGVGTFVGKVLIKNQQKQKSKKKAQ; Peptide with targeting and/or antimicrobial activity)	–	–	–	–	S. pneumoniae (H)	S. epidermidis and M. luteus and E. coli and MRSA and S. pneumoniae and E. faecalis and C. jeikeium	G B	–	–	–	–	–	–
PF-746 (chain 1 FLGNSQYFTRK; chain 2 FLGNSQYFTRK; Peptide with targeting and/or antimicrobial activity)	–	–	MRSA (C)	S. epidermidis (C)	S. pneumoniae (C)	S. epidermidis; also recorded: M. luteus; also recorded: E. coli; also recorded: C. albicans; also recorded: S. pneumoniae; also recorded: E. faecalis; also recorded: C. jeikeium	G B	–	E. coli (C)	M. luteus (C)	–	S. mutans (D)	P. aeruginosa (A)
PF-756 (chain 1 DALLRLA; chain 2 DALLRLA; Peptide with targeting and/or antimicrobial activity)	–	–	–	–	S. pneumoniae (A)	S. epidermidis and M. luteus and C. albicans and MRSA and C. jeikeium	G B	–	–	–	–	–	–
PF-757 (chain 1 PQAISSVQQNA; chain 2 PQAISSVQQNA; Peptide with targeting and/or antimicrobial activity)	–	–	–	–	S. pneumoniae (H)	M. luteus and C. albicans and MRSA	G B	–	–	–	–	–	–
PF-760 (chain 1 DHITLDDYEIHDGFNFELYYG; chain 2 DHITLDDYEIHDGFNFELYYG; Peptide with targeting and/or antimicrobial activity)	–	–	MRSA (M)	S. epidermidis (M)	S. pneumoniae (C)	S. epidermidis; also recorded: M. luteus	G B	–	–	–	–	–	–
PF-762 (chain 1 PAPAPSAPAPAPEQPEQPA; chain 2 PAPAPSAPAPAPEQPEQPA; Peptide with targeting and/or antimicrobial activity)	–	–	–	–	S. pneumoniae (H)	M. luteus; also recorded: C. albicans	G B	–	–	–	–	–	–
PF-764 (chain 1 GYFEPGKRD; chain 2 GYFEPGKRD; Peptide with targeting and/or antimicrobial activity)	–	–	MRSA (D)	–	S. pneumoniae (H)	S. epidermidis and M. luteus and C. albicans and MRSA and S. pneumoniae and E. faecalis and C. jeikeium	G B	–	–	–	–	–	–
PF-C058 (FETGFGDGYYMSLWGLNEKDEVCKVVIPFINPELID; Peptide with targeting and/or antimicrobial activity)	–	–	–	–	–	A. naeslundii; also recorded: F. nucleatum; also recorded: P. gingivalis; also recorded: S. mutans	G B	–	–	–	–	S. mutans (F)	–
